Patent US9700522B2, “Transdermal patch and method for delivery of vitamin B12” (Vita Sciences LLC, priority 2007, dated 2017)

Assays:
[1] = test system: skin; experiment: skin irritation on wear of patch with nicotinate enhancer; type: in vivo; conditions: benzylnicotinate substituted for methylnicotinate in the patch enhancer system
Text: (§1) Permeation enhancers identified as useful for this product included nicotinates (methyl and benzyl), fatty acids (oleic acid, undecanioic acid, lauric acid), fatty alcohols (octanol and nonanol), terpenes (menthol, limonene, and menthone), and polyols (polyethylene glycol, propylene glycol, and glycerol). In an early trial, a binary enhancer system of methylnicotinate and propylene glycol was used but the inventor observed that the methylnicotinate crystallized after about 3-4 months in the patch.

[2] = test system: skin; experiment: permeation enhancement of vitamin B12 from the patch; conditions: in conjunction with propylene glycol
Text: as §1

[3] = early trial of patch with binary enhancer system: crystallization of enhancer in the patch on storage; type: physicochemical; conditions: binary enhancer system of methylnicotinate and propylene glycol in vitamin B12 patch
Text: as §1

In the case of `O=C(OCc1ccccc1)c1cccnc1` [benzylnicotinate], the skin irritation [1] was “severe and unacceptable skin irritation”.

In the case of `CC(C)[C@@H]1CC[C@@H](C)CC1=O` [menthone], the permeation enhancer performance [2] was “excellent permeation enhancer”.

With `COC(=O)c1cccnc1` [methylnicotinate] the “time after which the enhancer crystallized in the patch” value [3] was 3-4 months.
